# Counter-ions that a name gives are not always drawn.
# Target: mGluR5 receptor (Sus scrofa, UniProt I3LUI7)
# Assay: Affinity for the mGluR5 receptor: inhibition of 3[H]-MPEP binding in pig brain homogenate
# Settings: 10 μM compound, 5 nM 3[H]-MPEP, read-out: mGluR5 receptor inhibition of ^3[H]-MPEP binding [10 μM] in % at a concentration of the example compounds of 10 μM
# Summary of the method: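 Test compounds were screened at 10 μM for displacement of 5 nM [3H]-MPEP from pig brain homogenate (450 μg protein, pH 8.0 Hepes buffer) over 60 min at room temperature. After filtration, scintillation counting gave the read-out. 10 μM unlabelled MPEP set nonspecific binding.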
# Chain of mGluR5 receptor (I3LUI7 19-1212): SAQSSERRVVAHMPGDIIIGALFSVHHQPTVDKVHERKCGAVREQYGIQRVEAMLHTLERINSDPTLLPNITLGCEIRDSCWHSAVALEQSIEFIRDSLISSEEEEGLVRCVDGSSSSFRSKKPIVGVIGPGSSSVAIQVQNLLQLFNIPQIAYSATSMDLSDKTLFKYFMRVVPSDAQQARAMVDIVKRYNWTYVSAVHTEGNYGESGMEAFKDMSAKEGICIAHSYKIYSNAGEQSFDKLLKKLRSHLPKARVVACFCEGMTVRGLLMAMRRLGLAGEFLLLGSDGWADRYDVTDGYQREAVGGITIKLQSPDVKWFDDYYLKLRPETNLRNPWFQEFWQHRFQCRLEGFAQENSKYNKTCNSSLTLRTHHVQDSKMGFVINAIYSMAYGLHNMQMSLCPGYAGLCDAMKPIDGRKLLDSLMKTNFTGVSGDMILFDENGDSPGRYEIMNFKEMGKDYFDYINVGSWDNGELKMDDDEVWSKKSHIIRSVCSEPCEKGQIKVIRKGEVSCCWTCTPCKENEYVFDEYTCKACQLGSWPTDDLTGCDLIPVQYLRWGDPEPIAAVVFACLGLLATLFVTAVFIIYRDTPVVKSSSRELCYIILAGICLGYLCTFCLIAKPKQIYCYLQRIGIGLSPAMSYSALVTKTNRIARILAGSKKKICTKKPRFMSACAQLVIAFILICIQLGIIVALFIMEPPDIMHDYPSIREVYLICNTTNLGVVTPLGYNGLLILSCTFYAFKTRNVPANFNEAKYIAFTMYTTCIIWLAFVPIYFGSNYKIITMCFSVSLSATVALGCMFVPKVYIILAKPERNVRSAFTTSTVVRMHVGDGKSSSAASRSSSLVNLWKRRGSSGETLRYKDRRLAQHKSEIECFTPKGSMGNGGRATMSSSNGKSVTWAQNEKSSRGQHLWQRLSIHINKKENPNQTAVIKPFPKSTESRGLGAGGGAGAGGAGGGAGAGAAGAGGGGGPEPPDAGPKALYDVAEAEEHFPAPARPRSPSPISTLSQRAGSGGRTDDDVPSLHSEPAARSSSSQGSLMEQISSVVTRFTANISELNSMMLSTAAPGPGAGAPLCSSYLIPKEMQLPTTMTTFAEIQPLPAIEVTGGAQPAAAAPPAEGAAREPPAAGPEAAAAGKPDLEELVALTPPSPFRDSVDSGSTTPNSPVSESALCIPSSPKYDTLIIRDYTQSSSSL
row,SMILES,inhibition at 10 µM
1,"CCCCNc1c(-c2cc(C#Cc3ccccc3)cs2)nc2ccc(Br)c(C)n12 [Example 222, 6-bromo-N-butyl-5-methyl-2-(4-(phenylethynyl)thiophen-2-yl)imidazo[1,2-a]pyridin-3-amine]",33%
2,"CC(C)(C)c1ccn2c(Nc3ccc(F)c(Cl)c3)c(-c3ccc(C#Cc4ccccc4)s3)nc2c1 [Example 46, [7-tert-butyl-2-(5-phenylethynyl-thiophen-2-yl)-imidazo[1,2-a]pyridin-3-yl]-(3-chloro-4-fluoro-phenyl)-amine]",76%
3,"Cc1ccc2nc(-c3ccc(C#Cc4ccccc4)s3)c(NCC3CCCCC3)n2c1 [Example 3, cyclohexylmethyl-[6-methyl-2-(5-phenylethynyl-thiophen-2-yl)-imidazo[1,2-a]pyridin-3-yl]-amine]",95%
4,"C(#Cc1csc(-c2nc3cnccn3c2NC2CCCC2)c1)c1ccccc1 [Example 212, N-cyclopentyl-2-(4-(phenylethynyl)thiophen-2-yl)imidazo[1,2-a]pyrazin-3-amine]",90%
5,"C(#Cc1ccc(-c2nc3cnccn3c2NCC2CCCCC2)s1)c1ccccc1 [Example 8, cyclohexylmethyl-[2-(5-phenylethynyl-thiophen-2-yl)-imidazo[1,2-a]pyrazin-3-yl]-amine]",100%
6,"CCc1ccn2c(NC(C)(C)CC(C)(C)C)c(-c3ccc(C#Cc4ccccn4)s3)nc2c1 [Example 299, 7-ethyl-2-(5-(pyridin-2-ylethynyl)thiophen-2-yl)-N-(2,4,4-trimethylpentan-2-yl)imidazo[1,2-a]pyridin-3-amine]",86%
7,"COc1ccc(CNc2c(-c3ccc(C#Cc4ccccc4)s3)nc3nc(C)ccn23)cc1 [Example 34, (4-methoxy-benzyl)-[7-methyl-2-(5-phenylethynyl-thiophen-2-yl)-imidazo[1,2-a]pyrimidin-3-yl]-amine]",98%
8,"Cc1c(Br)ccc2nc(-c3cc(C#Cc4ccccc4)cs3)c(NCc3ccc(Cl)cc3)n12 [Example 231, 6-bromo-N-(4-chlorobenzyl)-5-methyl-2-(4-(phenylethynyl)thiophen-2-yl)imidazo[1,2-a]pyridin-3-amine]",62%
9,"Cc1ccn2c(NC3CCCCC3)c(-c3ccc(C#Cc4ccccn4)s3)nc2c1 [Example 274, N-cyclohexyl-7-methyl-2-(5-(pyridin-2-ylethynyl)thiophen-2-yl)imidazo[1,2-a]pyridin-3-amine]",85%
10,"Cc1ccc2nc(-c3ccc(C#Cc4ccccn4)s3)c(NC3CCCC3)n2c1 [Example 267, N-cyclopentyl-6-methyl-2-(5-(pyridin-2-ylethynyl)thiophen-2-yl)imidazo[1,2-a]pyridin-3-amine]",85%
11,"CC(C)(C)CC(C)(C)Nc1c(-c2cccc(C#Cc3ccccn3)c2)nc2ncccn12 [Example 255, 2-(3-(pyridin-2-ylethynyl)phenyl)-N-(2,4,4-trimethylpentan-2-yl)imidazo[1,2-a]pyrimidin-3-amine]",81%
12,"CC(C)(C)Nc1c(-c2ccc(C#Cc3ccccn3)o2)nc2ccc(Cl)cn12 [Example 316, N-tert-butyl-6-chloro-2-(5-(pyridin-2-ylethynyl)furan-2-yl)imidazo[1,2-a]pyridin-3-amine]",55%
13,"COc1ccc(CNc2c(-c3ccc(C#Cc4ccccc4)s3)nc3cc(C)cc(C)n23)cc1 [Example 14, [5,7-dimethyl-2-(5-phenylethynyl-thiophen-2-yl)-imidazo[1,2-a]pyridin-3-yl]-(4-methoxy-benzyl)-amine]",100%
14,"C(#Cc1ccc(-c2nc3ncccn3c2NC2CCCC2)o1)c1ccccn1 [Example 257, N-cyclopentyl-2-(5-(pyridin-2-ylethynyl)furan-2-yl)imidazo[1,2-a]pyrimidin-3-amine]",77%
15,"CCCC(C)(C)Nc1c(-c2cc(C#Cc3ccccc3)cs2)nc2cnccn12 [Example 214, N-(2-methylpentan-2-yl)-2-(4-(phenylethynyl)thiophen-2-yl)imidazo[1,2-a]pyrazin-3-amine]",77%
16,"Cc1cccc2nc(-c3ccc(C#Cc4ccccc4)s3)c(NCC3CCCCC3)n12 [Example 2, cyclohexylmethyl-[5-methyl-2-(5-phenylethynyl-thiophen-2-yl)-imidazo[1,2-a]pyridin-3-yl]-amine]",95%
17,"COc1cccc(Nc2c(-c3ccc(C#Cc4ccccc4)s3)nc3cnccn23)c1 [Example 43, (3-methoxy-phenyl)-[2-(5-phenylethynyl-thiophen-2-yl)-imidazo[1,2-a]pyrazin-3-yl]-amine]",83%
18,"COc1ccc(CNc2c(-c3ccc(C#Cc4ccccc4)s3)nc3ccccn23)cc1 [Example 16, (4-methoxy-benzyl)-[2-(5-phenylethynyl-thiophen-2-yl)-imidazo[1,2-a]pyridin-3-yl]-amine]",93%

# Same assay, conditions: 3[H]-MPEP binding
row,SMILES,IC50
1,"CC(C)(C)CC(C)(C)Nc1c(-c2ccc(C#Cc3cccnc3)s2)nc2cnccn12 [Example 60, [2-(5-Pyridin-3-ylethynyl-thiophen-2-yl)-imidazo[1,2-a]pyrazin-3-yl]-(1,1,3,3-tetramethyl-butyl)-amine]",1200 nM
2,"CC(C)(C)Nc1c(-c2ccc(C#Cc3ncccn3)s2)nc2cnccn12 [Example 129, N-tert-butyl-2-(5-(pyrimidin-2-ylethynyl)thiophen-2-yl)imidazo[1,2-a]pyrazin-3-amine hydrochloride]",12 nM
3,"COc1ccc(C#Cc2ccc(-c3nc4cnccn4c3NC(C)(C)C)s2)cc1 [Example 114, N-tert-butyl-2-(5-((4-methoxyphenyl)ethynyl)thiophen-2-yl)imidazo[1,2-a]pyrazin-3-amine hydrochloride]",2110 nM
4,"CC(C)(C)Nc1c(-c2ccc(C#Cc3ccc(N)cc3)s2)nc2cnccn12 [Example 108, 2-(5-((4-aminophenyl)ethynyl)thiophen-2-yl)-N-tert-butylimidazo[1,2-a]pyrazin-3-amine]",1240 nM
5,"CC(C)(C)Nc1c(-c2ccc(C#Cc3cccc(N)n3)s2)nc2cnccn12 [Example 136, 2-(5-((6-aminopyridin-2-yl)ethynyl)thiophen-2-yl)-N-tert-butylimidazo[1,2-a]pyrazin-3-amine hydrochloride]",13800 nM
6,"CSc1cccc(C#Cc2ccc(-c3nc4cnccn4c3NC(C)(C)C)s2)c1 [Example 173, N-tert-butyl-2-(5-((3-(methylthio)phenyl)ethynyl)thiophen-2-yl)imidazo[1,2-a]pyrazin-3-amine]",800 nM
7,"CC(C)(C)CC(C)(C)Nc1c(-c2ccc(C#Cc3ccccn3)s2)nc2ccccn12 [Example 324, [2-(5-pyridin-2-ylethynyl-thiophen-2-yl)-imidazo[1,2-a]pyridin-3-yl]-(1,1,3,3-tetramethyl-butyl)-amine]",59 nM
8,"Cc1ccc(C#Cc2ccc(-c3nc4cnccn4c3NC(C)(C)C)s2)s1 [Example 135, N-tert-butyl-2-(5-((5-methylthiophen-2-yl)ethynyl)thiophen-2-yl)imidazo[1,2-a]pyrazin-3-amine hydrochloride]",1200 nM
9,"CC(C)(C)Nc1c(-c2ccc(C#Cc3ccc(F)cn3)s2)nc2cnccn12 [Example 169, N-tert-butyl-2-(5-((5-fluoropyridin-2-yl)ethynyl)thiophen-2-yl)imidazo[1,2-a]pyrazin-3-amine hydrochloride]",11 nM
